In patent publication US11453695B2, “Nucleoside analogues and methods of use thereof” (priority 2016, dated 2022):
Like-named read-outs stand apart in the source and are kept apart here.

Assays:
pancreatic cancer cells = conditions: background, reported; cited from earlier work
Panc-1 (pancreas) cells = assay: Growth inhibition in cancer cell lines (FIG. 5); type: cell-based, human; conditions: KRAS mutation
Source text: Molecules such as LCB-2151 and LCB-2132 (Group B) and LCB-2179 (Group C) indeed show antiproliferative activities against cancer cell lines with KRAS mutations. FIG. 5 presents the activity of LCB-2151, LCB-2179, LCB-2132 and Gemcitabine in different cancer cell lines. Most liver and pancreas cell lines have the KRAS protein (oncogene identified in Kiersten rat sarcoma virus), which alters its signal transduction pathway, are resistant to Gemcitabine. […] Both HepG-2 (liver) and Panc-1 (pancreas) have the KRAS mutation and are resistant to Gemcitabine.
(§1) Cells were plated in 96 well plates at a density of 10^4 cells/well and grown for 24 h. Cells were treated with different concentrations of the test compounds or vehicle alone (DMSO) and grown at 37° C. under a humidified 5% CO2 atmosphere. Their corresponding medium was used to dilute the 10 mM stocks of each compound to obtain 1 mM stock solutions and subsequently, the treatment concentrations. After 96 hours of incubation, the plates were equilibrated at room temperature for 30 minutes, […] of Cell Titer Glo® Luminometric Cell Viability Assay reagent (Promega) was added into each well, put on an orbital shaker for 2 minutes and incubated for 10 minutes at room temperature. The plate was transferred to a luminometer (Glomax Promega) and the luminescent signal was recorded. Each treatment at different concentration and the control group were triplicates or duplicates.

[1] = test system: HepG2 (liver human hepatocellular carcinoma) cell line; assay: Cell viability assay (Cell Titer Glo), growth inhibition; type: cell-based
Description: (§2) Growth inhibition of the compound comprises in the invention was tested in vitro using human cancer cell cultures
(§3) HepG2 (liver human hepatocellular carcinoma), BxPC3 and Capan-2 (adenocarcinomas), A549 (lung carcinoma), HCT-116 (colorectal carcinoma) and MCF-7 (breast tumor) cell lines were obtained from ATCC. The HepG2, BxPC3, Capan-2 and MCF-7 cells were placed into 75 ccm^3 tissue culture flasks and grown at 37° C. under a humidified 5% CO2 atmosphere in EMEM and RPMI-1640 medium respectively with 10% fetal bovine serum and 2% penicillin-streptomycin. Trypsin (0.05%) was used to detach cells from the bottom of flask.
as §1
(§4) This is a homogeneous method to determine the number of viable cells in culture based on quantification of the ATP present which signals the presence of metabolically active cells.

[2] = test system: Capan-2 (pancreas adenocarcinoma) cell line; assay: as above; type: cell-based, human
Description: as §2, §3, §1, §4

[3] = test system: BxPC3 (pancreas adenocarcinoma) cell line; assay: as above; type: cell-based, human
Description: as §2, §3, §1, §4

[4] = test system: MCF-7 (breast tumor) cell line; assay: as above; type: cell-based; conditions: Homo sapiens, MCF7, 96 hours of incubation
Description: as §2, §3, §1, §4

[5] = test system: HCT-116 (colorectal carcinoma) cell line; assay: as above; type: cell-based; conditions: Homo sapiens, 96 hours of incubation, read-out: Growth Inhibition (%) At 20 μM, HCT-116 (Colon)
Description: as §2, §3, §1, §4

[6] = test system: A549 (lung carcinoma) cell line; assay: as above; type: cell-based; conditions: Homo sapiens, 96 hours of incubation
Description: as §2, §3, §1, §4

[7] = test system: KRAS mutated human pancreatic and liver cancer cell lines (HepG-2, Panc-1, Capan-2); assay: Activity in KRAS mutated, Gemcitabine-resistant cancer cell lines; type: cell-based
Description: Liver and pancreatic cancer patients have an extremely poor survival rate (Table 1).
as §1

[8] = test system: Human fibroblast cell lines (HFF); assay: Cell toxicity in the HCMV assay (Cellglo, luminescence); type: cell-based; conditions: 150 μM; HFF cells
Description: (§5) Table 4 presents results for Human cytomegalovirus (HCMV), which causes serious diseases in immune compromised hosts, particularly for transplantation recipient. Cytopathic effect (CPE) of A1-169 HMCV variant virus was measured using Human fibroblast cell lines (HFF). Cell titer were measured using Cellglo assay and luminescence in presence or absence of group A of molecules. […] 90% reduction of viral load was attained at 0.25 μM and no cell death was measured in presence of 150 μM of the tested compound, testifying of its lack of intrinsic cell toxicity. Ganciclovir the clinical gold standard in the treatment of HCMV has bee reported as active against the same strand at 1 to 3 μM.

[9] = as above; type: cell-based, human; conditions: human, human fibroblast cell lines (HFF); HFF cells
Description: as §5

HCMV/AD169 = assay: Antiviral effect, cytopathic effect (CPE) of HCMV in HFF cells; type: cell-based, Human cytomegalovirus (HCMV)
Description: as §5

[10] = BXPC3 (pancreas), KRAS wild type
[11] = Homo sapiens, HepG2, 96 h, read-out: Growth Inhibition (%) At 20 μM, HepG2 (Liver)
[12] = Homo sapiens, Capan-2, 96 h, read-out: Growth Inhibition (%) At 20 μM, Capan-2 (Pancreas)
[13] = Homo sapiens, BXPC-3, 96 h, read-out: Growth Inhibition (%) At 20 μM, BxPC3 (Pancreas)
[14] = Homo sapiens, HepG2; read-out: IC50 (μM), HepG2 (Liver), antiproliferative activity
[15] = Homo sapiens, Capan-2; read-out: IC50 (μM), Capan-2 (Pancreas), antiproliferative activity
[16] = Homo sapiens, BXPC-3; read-out: IC50 (μM), BxPC3 (Pancreas), antiproliferative activity

| SMILES | inhibition at 20 µM [1, 11] | inhibition at 20 µM [4] | inhibition at 20 µM [5] | inhibition at 20 µM [2, 12] | inhibition at 20 µM [3, 13] | inhibition at 20 µM [6] | further results |
| --- | --- | --- | --- | --- | --- | --- | --- |
| CCCCCCCC(=O)Nc1ccn([C@@H]2O[C@H](CO)[C@@H](O)C2(F)F)c(=O)n1 |  |  |  |  |  |  | EC50 (pancreatic cancer cells): 100 µM |
| Nc1ccn([C@@H]2O[C@H](CO)[C@@H](O)C2(F)F)c(=O)n1 [Gemcitabine, reference compound] |  |  |  |  |  |  | plateau of inhibition (FIG. 5) (Panc-1 (pancreas) cells; second of the two plateaus named): 30%; plateau of inhibition (FIG. 5) ([1]; HepG-2 (liver), KRAS mutation; first of the two plateaus named): 50%; growth inhibition (FIG. 5), in words ([2]; Capan-2): no growth inhibition; growth inhibition (FIG. 5), in words [3, 10]: growth is blocked |
| CC(C)OC(=O)[C@H](C)NP(=O)(OC[C@H]1O[C@@H](n2cnc3c(NCc4ccccc4)nc(Cl)nc32)[C@H](F)C1(C)COP(=O)(N[C@@H](C)C(=O)OC(C)C)Oc1ccccc1)Oc1ccccc1 (some centres unmarked) [LCB2076] | 0% | 69% | 10% | 14% | 25% |  |  |
| COc1nc(Cl)nc2c1ncn2[C@@H]1O[C@H](COP(=O)(N[C@@H](C)C(=O)OC(C)C)Oc2ccccc2)C(C)(COP(=O)(N[C@@H](C)C(=O)OC(C)C)Oc2ccccc2)[C@H]1F (some centres unmarked) [LCB2079] | 72% | 96% | 51% | 50% | 40% | 70% | inhibition at 50 µM ([4]; 50 μM): > 96% |
| CC(C)OC(=O)[C@H](C)NP(=O)(OC[C@H]1O[C@@H](n2cnc3c(N)nc(Cl)nc32)[C@H](F)C1(C)COP(=O)(N[C@@H](C)C(=O)OC(C)C)Oc1ccccc1)Oc1ccccc1 (some centres unmarked) [LCB2080] | 0% | 79% | 40% | 58% | 16% | 34% |  |
| CC(C)OC(=O)[C@H](C)NP(=O)(OC[C@H]1O[C@@H](n2cnc3c(N)ncnc32)C(F)(F)C1(C)COP(=O)(N[C@@H](C)C(=O)OC(C)C)Oc1ccccc1)Oc1ccccc1 (some centres unmarked) [LCB2092] | 16% | 54% | 60% | 48% | 62% | 25% |  |
| CC(C)OC(=O)[C@H](C)NP(=O)(OC[C@H]1O[C@@H](n2cnc3c(N)ncnc32)C(F)(F)C1(C)CO)Oc1ccccc1 (some centres unmarked) [LCB2093] | 6% | 14% | 28% | 22% | 6% | 0% |  |
| CC(C)OC(=O)[C@H](C)NP(=O)(OC[C@H]1O[C@@H](n2cnc3c(NCc4ccccc4)ncnc32)C(F)(F)C1(C)COP(=O)(N[C@@H](C)C(=O)OC(C)C)Oc1ccccc1)Oc1ccccc1 (some centres unmarked) [LCB2095] | 0% | 49% | 31% | 46% | 67% | 3% |  |
| CC(C)OC(=O)[C@H](C)NP(=O)(OC[C@H]1O[C@@H](n2cnc3c(N)nc(Cl)nc32)C(F)(F)C1(C)COP(=O)(N[C@@H](C)C(=O)OC(C)C)Oc1ccccc1)Oc1ccccc1 (some centres unmarked) [LCB2105] |  |  | 53% | 48% | 47% |  |  |
| CC(C)(CCC(CCSCc1ccc(C(F)(F)F)cc1)SCc1ccc(C(F)(F)F)cc1)CC(=O)Nc1ccn([C@H]2CC(O)[C@@H](CO)O2)c(=O)n1 (some centres unmarked) [LCB-2132] |  |  |  |  |  |  | EC90 activity against KRAS mutated cancer cell lines resistant to Gemcitabine [7]: show EC90 activity |
| CC(C)(CCC(CCSCc1ccc(C(F)(F)F)cc1)SCc1ccc(C(F)(F)F)cc1)CC(=O)Nc1ccn([C@@H]2O[C@H](CO)[C@@](C)(CO)C2(F)F)c(=O)n1 (stereo partly drawn) [LCB-2139, N-(1-((2R,4R,5S)-3,3-difluoro-4,5-bis(hydroxymethyl)-4-methyltetrahydrofuran-2-yl)-2-oxo-1,2-dihydropyrimidin-4-yl)-3,3-dimethyl-6,8-bis((4-(trifluoromethyl)benzyl)thio)octanamide] |  |  |  |  |  |  | IC50 [1, 14]: 8 µM; IC50 [2, 15]: 8 µM; IC50 [3, 16]: 8 µM |
| CC(C)(CCC(CCSCc1ccc(F)cc1)SCc1ccc(F)cc1)CC(=O)Nc1ccn([C@@H]2O[C@H](CO)[C@@](C)(CO)C2(F)F)c(=O)n1 (stereo partly drawn) [LCB-2140, N-(1-((2R,4R,5S)-3,3-difluoro-4,5-bis(hydroxymethyl)-4-methyltetrahydrofuran-2-yl)-2-oxo-1,2-dihydropyrimidin-4-yl)-6,8-bis((4-fluorobenzyl)thio)-3,3-dimethyloctanamide] |  |  |  |  |  |  | IC50 [1, 14]: 8 µM; IC50 [2, 15]: 12.5 µM; IC50 [3, 16]: 8 µM |
| CC(C)(CC[C@H](CCSCc1ccc(C(F)(F)F)cc1)SCc1ccc(C(F)(F)F)cc1)CC(=O)Nc1ccn([C@@H]2O[C@H](CO)[C@@](C)(CO)C2(F)F)c(=O)n1 [LCB-2151, (R)—N-(1-((2R,4R,5S)-3,3-difluoro-4,5-bis(hydroxymethyl)-4-methyltetrahydrofuran-2-yl)-2-oxo-1,2-dihydropyrimidin-4-yl)-3,3-dimethyl-6,8-bis((4-(trifluoromethyl)benzyl)thio) octanamide] |  |  |  |  |  |  | EC90 activity against KRAS mutated cancer cell lines resistant to Gemcitabine [7]: show EC90 activity; growth inhibition (FIG. 5), in words (Panc-1 (pancreas) cells): block completely the growth; growth inhibition (FIG. 5), in words ([1]; HepG-2 (liver), KRAS mutation): block completely the growth; IC50 [1, 14]: 8 µM; growth inhibition (FIG. 5), in words ([2]; Capan-2): block completely the growth; IC50 [2, 15]: 8 µM; growth inhibition (FIG. 5), in words [3, 10]: block completely the growth; IC50 [3, 16]: 5 µM |
| CC(C)OC(=O)[C@H](C)NP(=O)(OC[C@H]1O[C@@H](n2ccc(NC(=O)CC(C)(C)CC[C@H](CCSCc3ccc(C(F)(F)F)cc3)SCc3ccc(C(F)(F)F)cc3)nc2=O)[C@](C)(CO)[C@@H]1O)Oc1ccccc1 (stereo partly drawn) [LCB-2179, Isopropyl ((((2R,3S,4R,5R)-5-(4-(3,3-dimethyl-6,8-bis((4-(trifluoromethyl)benzyl)thio)octanamido)-2-oxopyrimidin-1(2H)-yl)-3-hydroxy-4-(hydroxymethyl)-4-methyltetrahydrofuran-2-yl)methoxy)(phenoxy)phosphoryl)-L-alaninate] |  |  |  |  |  |  | EC90 activity against KRAS mutated cancer cell lines resistant to Gemcitabine [7]: show EC90 activity; growth inhibition (FIG. 5), in words (Panc-1 (pancreas) cells): block completely the growth; growth inhibition (FIG. 5), in words ([1]; HepG-2 (liver), KRAS mutation): block completely the growth; IC50 ([1]; Homo sapiens, HepG2, read-out: IC50 (μM), HepG2 (Liver), antiproliferative activity): 15 µM; growth inhibition (FIG. 5), in words ([2]; Capan-2): block completely the growth; IC50 ([2]; Homo sapiens, Capan-2, read-out: IC50 (μM), Capan-2 (Pancreas), antiproliferative activity): 15 µM; growth inhibition (FIG. 5), in words [3, 10]: block completely the growth; IC50 ([3]; Homo sapiens, BXPC-3, read-out: IC50 (μM), BxPC3 (Pancreas), antiproliferative activity): 7 µM |
| CC(C)OC(=O)[C@H](C)NP(=O)(OC[C@H]1O[C@@H](n2ccc(N)nc2=O)[C@H](F)C1(C)CO)Oc1ccccc1 (some centres unmarked) [LCB-2187] |  |  |  |  |  |  | cell death in presence of the tested compound [8]: no cell death; CC50 [9]: > 150 µM; EC50 (HCMV/AD169; Human betaherpesvirus 5, AD169, HFF, read-out: EC50 (μM), antiviral effect): < 0.05 µM; EC90 (HCMV/AD169; Human betaherpesvirus 5, HCMV/AD169 in HFF cells): 0.25 µM |
